# Laboratory results as given in patent US12569453B2, “Use of tapinarof for the treatment of atopic dermatitis” (Dermavant Sciences GmbH, priority 2018, dated 2026).
# How the values were obtained:
# [1] = test system: adolescent and adult subjects with AD; experiment: Phase II AD study: safety and tolerability; assay type: in vivo, human
# Experimental: Safety was assessed by the monitoring and recording of all AEs and serious adverse events (SAEs); evaluation of local (application site) tolerability; monitoring of hematology (including peripheral blood immunophenotyping and immunoglobulins), clinical chemistry, and vital signs; and the performance of ECGs and physical examinations.
# [2] = test system: adult subjects with psoriasis; experiment: Phase II/2b psoriasis study: safety and tolerability; assay type: in vivo, human
# Experimental: Safety was assessed by the monitoring and recording of all AEs and serious adverse events (SAEs); evaluation of local (application site) tolerability; monitoring of hematology (including peripheral blood Immunophenotyping and Immunoglobulins), clinical chemistry, and vital signs; and the performance of ECGs and physical examinations.
# Safety assessments included incidence, frequency and severity of AEs, evaluation of local (application-site) tolerability, clinical laboratory parameters, vital signs, electrocardiogram changes, and physical examinations. An unblinded Independent Data Monitoring Committee monitored patient safety. Investigators assessed the overall degree of irritation at the application sites using a scale of 0 (no irritation) to 4 (very severe/strong reaction) at each study visit. A score of 3 or 4 was reported as an AE. Study treatment was discontinued if a score of 4 was noted. Subject-reported tolerability was assessed using a 5-point tolerability scale of 0 (none) to 4 (strong/severe) to assess the presence and degree of burning/stinging and itching at the application site within 2 hours following application of tapinarof or vehicle.
# [3] = Phase II psoriasis study: plasma PK samples; assay type: in vivo, human; settings: of 860 samples from patients receiving an active dose
# Experimental: Pharmacokinetics: Sparse PK sampling throughout the duration of the study was intended to be used to develop a population PK model and to estimate population PK parameters (i.e., apparent clearance [CL/F], apparent volume of distribution [V/F]) of systemic exposure, according to the Time and Events Table. Plasma analysis was performed under the management of Bioanalysis, Immunogenicity & Biomarkers, IVIVT, PTS, GSK.
# The bioanalytical method used to support the study was a fully validated Liquid Chromatography-Tandem Mass Spectrometry (LC-MS/MS) method in accordance with FDA/EU/MHLW guidelines [US Department of Health and Human Services, Food and Drug Administration Draft Guidance for Industry: Bioanalytical Method Validation, 2013] [European Medicines Agency Guideline on Bioanalytical Method Validation, 2011] [Japanese Ministry of Health Guideline on Bioanalytical Method Validation in Pharmaceutical Development, 2013].
# [4] = rat subcutaneous 13-week toxicology study (NOAEL) and predicted safety margin; settings: in vivo, sc, rat subcutaneous 3 mg/kg/day, read-out: NOAEL AUC(0-24)
# Source text: The predicted maximum systemic exposure to Tapinarof in this study was expected to be lower than the no observed adverse effects level (NOAEL) identified in nonclinical toxicology studies.
# [5] = minipig 28 day toxicology, formulation F (NOAEL); assay type: in vivo; settings: 3% [60 mg/kg/day]
# [6] = Japanese subjects, pooled active (n=30)
# [7] = adolescent subjects, pooled active (n=49)
# [8] = adult subjects, pooled active (n=116)
# [9] = all cases in active treatment groups
# [10] = pooled active treatment groups (n=165)
# [11] = pooled active treatment groups (n=152)
# [12] = pooled tapinarof groups (n=152)
structure (smiles),measurement,setting,value
"CC(C)c1c(O)cc(/C=C/c2ccccc2)cc1O [Tapinarof, 3,5-Dihydroxy-4-isopropyl-trans-stilbene]",Impetigo,[1]; 0.5% BID,0 n
same,Serious TEAEs,[1]; 0.5% BID,0 n
same,atopic dermatitis leading to study treatment discontinuation,[1]; 0.5% BID,7%
same,subjects with abnormal clinically significant ECGs at any post-screening visit,[1]; 0.5% BID,12%
same,Nasopharyngitis,"[1]; 0.5% BID, listed as GSK2894512",4 n
same,Impetigo,[1]; 0.5% QD,0 n
same,Serious TEAEs,[1]; 0.5% QD,0 n
same,atopic dermatitis leading to study treatment discontinuation,[1]; 0.5% QD,2%
same,subjects with abnormal clinically significant ECGs at any post-screening visit,[1]; 0.5% QD,21%
same,Nasopharyngitis,"[1]; 0.5% QD, listed as GSK2894512",1 n
same,subjects with abnormal clinically significant ECGs at any post-screening visit,[1]; 1% BID,30%
same,Nasopharyngitis,"[1]; 1% BID, listed as GSK2894512",3 n
same,Acne,[1]; 1% QD,0 n
same,Dermatitis atopic,[1]; 1% QD,0 n
same,Discontinuous due to TEAEs,[1]; 1% QD,0 n
same,Impetigo,[1]; 1% QD,0 n
same,Serious TEAEs,[1]; 1% QD,0 n
same,subjects with abnormal clinically significant ECGs at any post-screening visit,[1]; 1% QD,24%
same,Nasopharyngitis,"[1]; 1% QD, listed as GSK2894512",5 n
same,subjects permanently discontinuing treatment due to TEAEs,[1]; [6],3%
same,subjects with mild TEAEs,[1]; [6],50%
same,subjects with moderate TEAEs,[1]; [6],10%
same,subjects with treatment-related TEAEs,[1]; [6],17%
same,"atopic dermatitis AE, median duration",[1]; active treatment groups,12.5 days
same,"atopic dermatitis AE, median time to onset",[1]; active treatment groups,40.5 days
same,"headache, median duration",[1]; active treatment groups,2 days
same,"headache, median time to onset",[1]; active treatment groups,2 days
same,"nasopharyngitis, median duration",[1]; active treatment groups,9 days
same,"nasopharyngitis, median time to onset",[1]; active treatment groups,32 days
same,"upper respiratory tract infection, median duration",[1]; active treatment groups,16.5 days
same,"upper respiratory tract infection, median time to onset",[1]; active treatment groups,32.5 days
same,subjects permanently discontinuing treatment due to TEAEs,[1]; [7],6%
same,subjects with mild TEAEs,[1]; [7],41%
same,subjects with moderate TEAEs,[1]; [7],14%
same,subjects with severe TEAEs,[1]; [7],2%
same,subjects with treatment-related TEAEs,[1]; [7],16%
same,subjects permanently discontinuing treatment due to TEAEs,[1]; [8],3%
same,subjects with mild TEAEs,[1]; [8],28%
same,subjects with moderate TEAEs,[1]; [8],25%
same,subjects with severe TEAEs,[1]; [8],3%
same,subjects with treatment-related TEAEs,[1]; [8],14%
same,"folliculitis, median start date (since Day 1)",[1]; [9],17 days
same,subjects with elevations in liver chemistries (ALT/AST >2×ULN),[1]; all in Tapinarof treatment groups,6 subjects
same,treatment-related atopic dermatitis,[1]; pooled active groups,1%
same,Acne,[1]; pooled active groups (n=165),4%
same,Impetigo,[1]; pooled active groups (n=165),1%
same,Nasopharyngitis,[1]; pooled active groups (n=165),8%
same,atopic dermatitis (worsening/flare),[1]; pooled active groups (n=165),4%
same,atopic dermatitis leading to study treatment discontinuation,[1]; pooled active groups (n=165),2%
same,folliculitis,[1]; pooled active groups (n=165),11%
same,headache,[1]; pooled active groups (n=165),5%
same,treatment-related application site pain,[1]; pooled active groups (n=165),1%
same,treatment-related folliculitis,[1]; pooled active groups (n=165),5%
same,upper respiratory tract infection,[1]; pooled active groups (n=165),7%
same,subjects permanently discontinuing treatment due to TEAEs,[1]; [10],4%
same,subjects with TEAEs,[1]; [10],56%
same,subjects with mild TEAEs,[1]; [10],32%
same,subjects with moderate TEAEs,[1]; [10],22%
same,subjects with severe TEAEs,[1]; [10],2%
same,subjects with treatment-related TEAEs,[1]; [10],15%
same,subjects with TEAEs considered related to treatment,[1]; treatment groups pooled,24 subjects
same,subjects with at least one AE,[1]; treatment groups pooled,97 subjects
same,subjects with at least one TEAE,[1]; treatment groups pooled,93 subjects
same,Application-site dermatitis,[2]; 0.5% BID,0 n
same,Dermatitis allergic,[2]; 0.5% BID,0 n
same,Miliaria,[2]; 0.5% BID,0 n
same,Urticaria,[2]; 0.5% BID,0 n
same,headache,[2]; 0.5% BID,0 n
same,Acne,[2]; 0.5% QD,0 n
same,Dermatitis allergic,[2]; 0.5% QD,0 n
same,Serious TEAEs,[2]; 0.5% QD,0 n
same,Urticaria,[2]; 0.5% QD,0 n
same,Vomiting,[2]; 0.5% QD,0 n
same,Miliaria,[2]; 1% BID,0 n
same,Urticaria,[2]; 1% BID,0 n
same,Vomiting,[2]; 1% BID,0 n
same,Nasopharyngitis,"[2]; 1% BID, listed as GSK2894512",1 n
same,folliculitis,"[2]; 1% BID, listed as GSK2894512",8 n
same,Acne,[2]; 1% QD,0 n
same,Dermatitis allergic,[2]; 1% QD,0 n
same,Nasopharyngitis,[2]; 1% QD,0 n
same,Vomiting,[2]; 1% QD,0 n
same,"folliculitis, median duration (resolved events)",[2]; active treatment groups,55 days
same,"folliculitis, median time to onset",[2]; active treatment groups,26 days
same,"headache, median duration",[2]; active treatment groups,3 days
same,"headache, median time to onset",[2]; active treatment groups,2.5 days
same,"nasopharyngitis, median duration",[2]; active treatment groups,12 days
same,"nasopharyngitis, median time to onset",[2]; active treatment groups,13 days
same,"contact dermatitis, median duration",[2]; [9],32 days
same,"contact dermatitis, median time to onset",[2]; [9],30 days
same,subjects with serious TEAEs,"[2]; all in Tapinarof treatment groups, none treatment-related",7 subjects
same,Nasopharyngitis,[2]; [11],5%
same,Vomiting,[2]; [11],2%
same,headache,[2]; [11],4%
same,subjects permanently discontinuing treatment due to TEAEs,[2]; [11],10%
same,subjects with TEAEs,[2]; [11],56%
same,subjects with mild TEAEs,[2]; [11],27%
same,subjects with moderate TEAEs,[2]; [11],22%
same,subjects with severe TEAEs,[2]; [11],7%
same,subjects with treatment-related TEAEs,[2]; [11],22%
same,treatment-related monocyte count decreased,[2]; [11],1%
same,contact dermatitis,[2]; [12],8%
same,folliculitis,[2]; [12],13%
same,treatment-related folliculitis,[2]; [12],10%
same,subjects with TEAEs considered related to treatment,[2]; treatment groups pooled,34 subjects
same,subjects with at least one AE,[2]; treatment groups pooled,89 subjects
same,subjects with at least one TEAE,[2]; treatment groups pooled,85 subjects
same,plasma samples below the Lower Limit of Quantitation (LLQ),[3],649 samples
same,plasma samples quantified,[3],157 samples
same,AUC(0-t),[4],99 ng·h/mL
same,gender averaged NOAEL Cmax,[5],0.84 ng/mL
